Results: paper PMC12067444, “Synthesis and Pharmacological Characterization of Novel Peripheral Cannabinoid-1 Receptor Blockers Based on a Tricyclic Scaffold” (Journal of Medicinal Chemistry, 2025)
Where two headings read alike, the source gives them in different places.

How the values were obtained:
[1] = Tissue distribution after acute oral administration; format: in vivo, mouse; details: male, C57Bl/6J, mouse, 1 mg/kg PO, 1 h post-acute administration
Procedure: Male C57Bl/6J mice aged 7–9 weeks (3–4 mice per compound) were fasted overnight before administering each test compound. The compounds were accurately weighed and mixed with an appropriate vehicle to prepare a clear oral solution. The formulations were freshly prepared on the dosing day, and the mice were administered the compound via oral gavage within 4 h of formulation preparation. 1, 2, 4, and 8 h after compound administration, the mice were euthanized, and approximately 200 μL of blood was collected via cardiac puncture for plasma preparation. Brain and liver tissues were harvested and processed for analysis. Sample analysis was performed using LC-MS/MS, as described in detail in the SI. […]
calculated using the equation:
Lucif er yellow = VV bbbbbbbbbbbbbbbbbbbb ×RR FFFF bbbbbbbbbbbbbbbbbbbb ×100 […]
Measurements of BNS808 using LC-MS/MS. MS/MS analyses were conducted using a Sciex QTRAP® 6500+ mass spectrometer (Framingham, MA, USA). Air was […]
Infinity 1031 nitrogen generator (Peak Scientific, Inchinnan, Scotland). Purified air […]
generator to ensure a continuous and stable air supply.

mice = experiment: Cataleptic behavior (bar test) induced by WIN-55,212; format: in vivo, mouse; details: rimonabant 10 mg/kg PO, BNS808 1 mg/kg; 30 min before WIN-55,212 3 mg/kg IP; bar test at 60 min
Procedure: Catalepsy was assayed using the bar test. Mice were taken out of their home cages, and their forepaws were placed on a horizontal bar measuring 0.5 cm in diameter, positioned 4 cm above the bench surface. Typically, vehicle-treated mice released the bar within 2 s. Cataleptic behavior was defined as the mice remaining motionless, grasping onto the bar, with an arbitrary cutoff of 30 s. The CB1R antagonists, including rimonabant at doses 1 and 10 mg/kg and BNS808 at a dose of 1 mg/kg, were administered 30 min before the IP injection of 3 mg/kg WIN-55,212 (a CB1R agonist). The test was conducted 60 min after the administration of the agonist.

[2] = Brain compound levels in the CNS side-effect study (Figure 2H); format: in vivo; details: male, C57Bl/6J, mouse, brain; rimonabant 10 mg/kg PO, 1 h after administration
Procedure: The ability of BNS808 and rimonabant (as a positive control) to induce centrally mediated hyperactivity in mice (A–C). Wild-type, male, C57Bl/6J mice received a single dose of rimonabant (10 mg/kg, PO), BNS808 (1 or 10 mg/kg, PO) or vehicle, and the Promethion High-Definition Behavioral Phenotyping System monitored the activity profile. In addition, the ability of BNS808 and rimonabant (as a positive control) to inhibit the hypomotility induced by a CB1R receptor agonist (HU210; 30 μg/kg, IP) was tested in wild-type, male, C57Bl/6J mice which received a single dose of rimonabant (10 mg/kg, PO) or BNS808 (1 or 10 mg/kg, PO) or vehicle (D–F). […] Data represent the mean ± SEM from 4 to 8 mice per group. *P < 0.05 vs Vehicle-treated control. ^#P < 0.05 vs rimonabant.

- Kp at 1 h ([1]; brain / plasma, read-out: brain-to-plasma (B/P) ratio): 4.28
- concentration at 1 h ([1]; brain, read-out: brain concentration): 128 ng/g
- Kp at 1 h ([1]; liver / plasma, read-out: liver/plasma (L/P) ratio): 7.4
- concentration at 1 h ([1]; liver, read-out: liver concentration): 226 ng/g
- concentration at 1 h ([1]; plasma, read-out: plasma concentration): 30 ng/mL
Compound: Cc1c(C(=O)NN2CCCCC2)nn(-c2ccc(Cl)cc2Cl)c1-c1ccc(Cl)cc1 [rimonabant]
- blockade of WIN-55,212-induced cataleptic behavior (mice): blocked the cataleptic behavior
- concentration at 1 h [2]: 600 ng/g
